These results are taken from patent US10052289B2, “Composition comprising an active agent with low aqueous solubility” (Flamel Ireland Limited, priority 2008, dated 2018).

Series [1] is described as follows: Solubilization of ketoconazole in concentrated POM polymer solution (visual check). In kind it is physicochemical. To be noted: for solubility: pH 7, aqueous with cosolvent or surfactant or cyclodextrin, thermodynamic from solid.
The procedure of series [2]: The preparation is centrifuged at 9,000 rpm for 30 minutes.
The source holds these as a separate data set.
Series [3] in a line: physchem. Particulars: thermodynamic from solid.
The nature of series [4]: physchem. Particulars: for solubility at […]: 37 °C, pH 7, aqueous buffer, thermodynamic from solid. As to the method:
0.49 mg of paclitaxel (Bioxel) is introduced into a 2 liter volumetric flask. The flask is topped up to the fill line with a 0.05 M phosphate buffer at pH 7.0. The preparation is stirred using a magnetic bar, at 37° C.
The preparation is then placed in an ultrasonic bath for 60 min at ambient temperature.

Series [5] can be described thus: Solubilization of paclitaxel in aqueous POM polymer solution at 20 mg/ml (visual check). Particulars: for Solubilized active ingredient in μmol per g of polymer / Total concentration of active ingredient solibilized for 20 g/l of polymer: 20 g/l, pH 7.0, ambient temperature. In kind it is physicochemical. The protocol: 4.99 mg of paclitaxel (Bioxel) are introduced into a pill-box.
10.33 mg of paclitaxel (Bioxel) are introduced into a pill-box.
7 mg of paclitaxel (Bioxel) are introduced into a pill-box.

A short description of series [6]: Solubilization of paclitaxel in concentrated aqueous POM polymer solution (visual check). In kind it is physicochemical. To be noted: for solubility: concentrated aqueous POM polymer solution. The protocol: 21.21 mg of paclitaxel (Bioxel) are introduced into a pill-box.
39.68 mg of paclitaxel (Bioxel) are introduced into a pill-box.
35.05 mg of paclitaxel (Bioxel) are introduced into a pill-box.

The conditions of series [7]: background statement; cited from earlier work.
For series [8] the following is noted: pH 7.0, ambient temperature.
Series [9] is described as follows: physchem. To be noted: pH 7, aqueous buffer, thermodynamic from solid, solubility in the absence of polymer.
Procedure: 40 to 50 mg of carvedilol base are introduced into a 15 ml Falcon tube. 5 ml of aqueous solution of concentrated POM polymer at 20 mg/ml and at pH 7.0 are added. […] After this stage, the preparation is centrifuged at 9,000 rpm for 30 minutes in order to eliminate any undissolved crystals. […] It is diluted 1,000 times with a phosphate buffer at pH 7.0. The concentration of solubilized carvedilol is determined by UV spectrometry (at a wavelength of 240 nm and using a cell with a 1 cm optical path).
Series [10] in a line: physchem. Particulars: concentrated aqueous POM polymer solution, pH 7, aqueous with cosolvent or surfactant or cyclodextrin, thermodynamic from solid, Total concentration of solubilized active ingredient, ambient temperature.
Setting [11] is: sodium polyglutamate DP=100, 10% VE, 52.8 mg/ml, pH 7.0, ambient temperature.
The mark [12] stands for this setting: sodium polyglutamate DP=100, 15% VE, 84.6 mg/ml, pH 7.0, ambient temperature.
The mark [13] stands for this setting: sodium polyglutamate DP=100, 20% VE, 156 mg/ml, pH 7.0, ambient temperature.
[14] abbreviates: sodium polyglutamate DP=100, 30% VE, 53.5 mg/ml, pH 7.0, ambient temperature.
[15] abbreviates: sodium polyglutamate DP=100, 5% VE.
[16] abbreviates: sodium polyglutamate DP=100, 10% VE.
Setting [17] is: sodium polyglutamate DP=100, 15% VE.
[18] abbreviates: sodium polyglutamate DP=100, 20% VE.
Setting [19] is: sodium polyglutamate DP=100, 10% VE, 52.8 mg/ml.
[20] abbreviates: sodium polyglutamate DP=100, 15% VE, 84.6 mg/ml.
Where [21] appears, read: sodium polyglutamate DP=100, 20% VE, 156 mg/ml.

Each structure is given as a SMILES string. In brackets after ≈: the same amount, converted by molar mass. Several values for one entry are separate records, joined by “and”; a condition that tells them apart may be missing. Equal values may be shown once. Read-outs that look alike come from different tables or passages of the source.

On to `CC(=O)N1CCN(c2ccc(OCC3COC(Cn4ccnc4)(c4ccc(Cl)cc4Cl)O3)cc2)CC1` (centres unmarked) [ketoconazole], for which the solubility was over 30 mM in series [1] (concentrated aqueous POM polymer solution, concentrated polymers DP=100 containing between 15% and 20% vitamin E, read-out: concentrations of solubilized active ingredient); 31.1 mM (≈ 16500 µg/mL) in [1] (concentrated aqueous POM polymer solution, sodium polyglutamate DP=100, 15% VE, 84.6 mg/ml, pH 7.0, ambient temperature, read-out: Total concentration of solubilized active ingredient); 16 mM (≈ 8500 µg/mL) in series [1] (sodium polyglutamate DP=100, 10% VE, 52.8 mg/ml, pH 7.0, ambient temperature, read-out: Total concentration of solubilized active ingredient); 53.5 mM (≈ 28400 µg/mL) in series [1] (sodium polyglutamate DP=100, 20% VE, 156 mg/ml, pH 7.0, ambient temperature, read-out: Total concentration of solubilized active ingredient); 14.1 mM (≈ 7490 µg/mL) in series [1] (sodium polyglutamate DP=100, 30% VE, 53.5 mg/ml, pH 7.0, ambient temperature, read-out: Total concentration of solubilized active ingredient); 0.565 mM (≈ 300 µg/mL) in “physchem [3]” (aqueous POM polymer solution, pH 7, aqueous with cosolvent or surfactant or cyclodextrin, Total concentration of solubilized active ingredient for 20 g/l of polymer, sodium polyglutamate DP=100, 2% VE, 20 g/l, pH 7.0, ambient temperature). For the same compound, the solubility in the series “physchem [3]” (aqueous POM polymer solution, pH 7, aqueous with cosolvent or surfactant or cyclodextrin, Total concentration of solubilized active ingredient for 20 g/l of polymer, sodium polyglutamate DP=100, 5% VE, 20 g/l, pH 7.0, ambient temperature) is 2.54 mM (≈ 1350 µg/mL); in the series “physchem [3]” (aqueous POM polymer solution, pH 7, aqueous with cosolvent or surfactant or cyclodextrin, Total concentration of solubilized active ingredient for 20 g/l of polymer, sodium polyglutamate DP=100, 10% VE, 20 g/l, pH 7.0, ambient temperature), 7.16 mM (≈ 3810 µg/mL); in the series “physchem [3]” (aqueous POM polymer solution, pH 7, aqueous with cosolvent or surfactant or cyclodextrin, Total concentration of solubilized active ingredient for 20 g/l of polymer, sodium polyglutamate DP=100, 15% VE, 20 g/l, pH 7.0, ambient temperature) it was 7.16 mM (≈ 3810 µg/mL); in the series “physchem [3]” (aqueous POM polymer solution, pH 7, aqueous with cosolvent or surfactant or cyclodextrin, Total concentration of solubilized active ingredient for 20 g/l of polymer, sodium polyglutamate DP=100, 20% VE, 20 g/l, pH 7.0, ambient temperature) it was 6.97 mM (≈ 3700 µg/mL); in the series “physchem [3]” (aqueous medium without polymer, pH 7, aqueous buffer, solubility in the absence of polymer, pH 7.0, absence of polymer) it was about 0.02 mM (≈ 10.6 µg/mL). In addition, the “Solubilized active ingredient in μmol per g of polymer” value in [1] (setting [11]) is 303 μmol per g of polymer; the “Solubilized active ingredient in μmol per g of polymer” value in series [1] (setting [12]) is 367 μmol per g of polymer; the “Solubilized active ingredient in μmol per g of polymer” value in [1] (setting [13]) is listed as 343 μmol per g of polymer; the “Solubilized active ingredient in μmol per g of polymer” value in series [1] (setting [14]) was 264 μmol per g of polymer; the “Solubilized active ingredient in μmol per g of polymer” value (sodium polyglutamate DP=100, 2% VE, 20 g/l, pH 7.0, ambient temperature) was 28 μmol per g of polymer; the “Solubilized active ingredient in μmol per g of polymer” value (sodium polyglutamate DP=100, 5% VE, 20 g/l, pH 7.0, ambient temperature) is listed as 127 μmol per g of polymer. Further, the “Solubilized active ingredient in μmol per g of polymer” value reads like this: (sodium polyglutamate DP=100, 10% VE, 20 g/l, pH 7.0, ambient temperature) 358 μmol per g of polymer; (sodium polyglutamate DP=100, 15% VE, 20 g/l, pH 7.0, ambient temperature) 358 μmol per g of polymer; (sodium polyglutamate DP=100, 20% VE, 20 g/l, pH 7.0, ambient temperature) 348 μmol per g of polymer. The “factor of increase of solubility” value in series [2] is listed as “approximately 200”.

As to `CC(=O)O[C@H]1C(=O)[C@@]2(C)[C@H]([C@H](OC(=O)c3ccccc3)[C@]3(O)C[C@H](OC(=O)[C@H](O)[C@@H](NC(=O)c4ccccc4)c4ccccc4)C(C)=C1C3(C)C)[C@]1(OC(C)=O)CO[C@@H]1C[C@@H]2O` [paclitaxel], in “physchem [4]” (0.49 mg paclitaxel in 2 liter 0.05 M phosphate buffer pH 7.0, after stirring, ultrasonic bath 60 min at ambient temperature), the “appearance after ultrasonic treatment” value was “A few grains of powder are still undissolved”. The “appearance after magnetic stirring” value in “physchem [4]” (0.49 mg paclitaxel in 2 liter 0.05 M phosphate buffer pH 7.0, magnetic stirring […] at 37° C.) is recorded as “a few grains of undissolved powder remain”. Besides, the solubility at […] in “physchem [4]” (solubility in an aqueous buffer) is < 0.25 µg/mL and < 0.3 µM; in the series “physchem [4]” (solubility of the active ingredient measured without polymer) it was 0.0003 mM (≈ 0.256 µg/mL); in [5] (aqueous polyglutamate (POM) polymer solution, pH 7, aqueous with cosolvent or surfactant or cyclodextrin, thermodynamic from solid, 20 mg/ml polyglutamate DP=100, 20% VE), about 800 µg/mL (≈ 937 µM). For the same compound, the “μmol of paclitaxel per gram of POM polymer” value in series [5] (20 mg/ml polyglutamate DP=100, 20% VE) is given as 47 μmol per gram of POM polymer; in series [6] (90 mg/ml polyglutamate 20% VE), 49 μmol per gram of POM polymer. Also, the “Solubilized active ingredient in μmol per g of polymer” value is 12 μmol per g of polymer in series [5] (setting [15]); 29 μmol per g of polymer in [5] (setting [16]); 47 μmol per g of polymer in [5] (setting [17]); 47 μmol per g of polymer in series [5] (setting [18]); 29 μmol per g of polymer in [6] (setting [11]); 42 μmol per g of polymer in series [6] (setting [12]). Besides, the “Solubilized active ingredient in μmol per g of polymer” value in [6] (setting [13]) is listed as 41 μmol per g of polymer; in series [6] (setting [14]), <26 μmol per g of polymer. In addition, the “Total concentration of active ingredient solibilized for 20 g/l of polymer” value worked out at 0.00023 mol/L in series [5] (setting [15]), 0.00059 mol/L in [5] (setting [16]), 0.00094 mol/L in series [5] (setting [17]) and 0.00094 mol/L in series [5] (setting [18]). In addition, the solubility at 5 h in series [6] (aqueous polyglutamate (POM) polymer solution, pH 7, aqueous with cosolvent or surfactant or cyclodextrin, thermodynamic from solid, 90 mg/ml polyglutamate 20% VE) lay in the range of 3500 to 4000 µg/mL (≈ 4100 to 4680 µM). Further, the solubility is over 3 mM in [6] (pH 7, aqueous with cosolvent or surfactant or cyclodextrin, thermodynamic from solid, concentrated polymers DP=100 containing between 15% and 20% vitamin E, read-out: concentrations of solubilized active ingredient); 1.5 mM (≈ 1280 µg/mL) in series [6] (pH 7, aqueous with cosolvent or surfactant or cyclodextrin, thermodynamic from solid, sodium polyglutamate DP=100, 10% VE, 52.8 mg/ml, pH 7.0, ambient temperature, read-out: Total concentration of solubilized active ingredient); 3.5 mM (≈ 2990 µg/mL) in series [6] (pH 7, aqueous with cosolvent or surfactant or cyclodextrin, thermodynamic from solid, sodium polyglutamate DP=100, 15% VE, 84.6 mg/ml, pH 7.0, ambient temperature, read-out: Total concentration of solubilized active ingredient); 6.4 mM (≈ 5470 µg/mL) in [6] (pH 7, aqueous with cosolvent or surfactant or cyclodextrin, thermodynamic from solid, sodium polyglutamate DP=100, 20% VE, 156 mg/ml, pH 7.0, ambient temperature, read-out: Total concentration of solubilized active ingredient); under 1.4 mM in series [6] (pH 7, aqueous with cosolvent or surfactant or cyclodextrin, thermodynamic from solid, sodium polyglutamate DP=100, 30% VE, 53.5 mg/ml, pH 7.0, ambient temperature, read-out: Total concentration of solubilized active ingredient). The aqueous solubility entry in series [7] was “less than 1 μg/ml”.

Take `COc1ccccc1OCCNCC(O)COc1cccc2[nH]c3ccccc3c12` (centres unmarked) [carvedilol base, carvedilol]: the “Solubilized active ingredient in μmol per g of polymer” value in series [8] (setting [19]) is recorded as 638 μmol per g of polymer, the “Solubilized active ingredient in μmol per g of polymer” value in series [8] (setting [20]) is recorded as 474 μmol per g of polymer, the “Solubilized active ingredient in μmol per g of polymer” value in series [8] (setting [21]) is given as 543 μmol per g of polymer and the “Solubilized active ingredient in μmol per g of polymer” value (pH 7) was 28 μmol per g of polymer. Besides, for the setting “pH 7”, the “Total concentration of solubilized active ingredient for 20 g/l of polymer” value is 0.000565 mol/L. The same compound yielded a solubility at 90 min in the series “physchem [9]” of 0.12 mM (≈ 48.8 µg/mL). Also, the solubility was 33.7 mM (≈ 13700 µg/mL) in “physchem [10]” (setting [19]), 40.1 mM (≈ 16300 µg/mL) in the series “physchem [10]” (setting [20]) and 84.6 mM (≈ 34400 µg/mL) in “physchem [10]” (setting [21]).
